Source: ChEMBL document CHEMBL2424655, “Design, synthesis and biological evaluation of peptide derivatives of L-dopa as anti-parkinsonian agents” (2013)
Square brackets hold non-standard residues; d marks the D form. Peptide text beside a SMILES is read from it. * marks the point of attachment. Dopa = N[C@@H](Cc1ccc(O)c(O)c1)C(=O)O; αMeF = C[C@](N)(Cc1ccccc1)C(=O)O; Cha = N[C@@H](CC1CCCCC1)C(=O)O; Ac6c = NC1(C(=O)O)CCCCC1; Ac5c = NC1(C(=O)O)CCCC1; Aib = CC(C)(N)C(=O)O; OcHex = C1CCC(O*)CC1; OBn = c1ccc(CO*)cc1; OiPr = CC(C)O*

Columns and labels:
Assay type in all cases: functional
Rattus norvegicus [1] = experiment: Antiparkinsonian activity in 6-hydroxydopamine lesioned Wistar rat assessed as duration of activity at 63.4 umol/kg, po measured every 10 mins for 240 mins relative to L-DOPA
Rattus norvegicus [2] = experiment: Antiparkinsonian activity in 6-hydroxydopamine lesioned Wistar rat assessed as AUC activity by measuring contralateral rotations at 63.4 umol/kg, po measured every 10 mins for 240 mins relative to L-DOPA
Rattus norvegicus [3] = experiment: Antiparkinsonian activity in 6-hydroxydopamine lesioned Wistar rat assessed as peak activity by measuring contralateral rotations at 63.4 umol/kg, po measured every 10 mins for 240 mins relative to L-DOPA
Rattus norvegicus [4] = experiment: Antiparkinsonian activity in 6-hydroxydopamine lesioned Wistar rat assessed as duration of activity at 63.4 umol/kg, ip measured every 10 mins for 240 mins relative to L-DOPA
Rattus norvegicus [5] = experiment: Antiparkinsonian activity in 6-hydroxydopamine lesioned Wistar rat assessed as AUC activity by measuring contralateral rotations at 63.4 umol/kg, ip measured every 10 mins for 240 mins relative to L-DOPA
Rattus norvegicus [6] = experiment: Antiparkinsonian activity in 6-hydroxydopamine lesioned Wistar rat assessed as peak activity by measuring contralateral rotations at 63.4 umol/kg, ip measured every 10 mins for 240 mins relative to L-DOPA

Q: With `CC(C)CCOC(=O)[C@H](Cc1ccc(O)c(O)c1)NC(=O)C(C)(C)N.Cl` as the molecule, how does the Activity (Rattus norvegicus [1]) read?
A: Its Activity is 49%.

Q: What about the Activity (Rattus norvegicus [2]) of the same molecule?
A: The Activity was 79%.

Q: What about the Activity (Rattus norvegicus [3]) of the same molecule?
A: The Activity was 59%.

Q: For `COC(=O)[C@H](Cc1ccc(OC(C)=O)c(OC(C)=O)c1)NC(=O)C(C)(C)N.Cl`, which Activity (Rattus norvegicus [1]) is on record?
A: Its Activity is 73%.

Q: And the Activity (Rattus norvegicus [2])?
A: Its Activity is 55%.

Q: What about the Activity (Rattus norvegicus [3]) of the same molecule?
A: The Activity was 69%.

Q: What does the source list for `COC(=O)[C@H](Cc1ccc(OC(C)=O)c(OC(C)=O)c1)NC(=O)C1(N)CCCCC1.Cl`?
A: Activity (Rattus norvegicus [1]): 42%; Activity (Rattus norvegicus [2]): 42%; Activity (Rattus norvegicus [3]): 55%

Q: How did the Activity (Rattus norvegicus [1]) turn out when `COC(=O)[C@H](Cc1ccc(OC(C)=O)c(OC(C)=O)c1)NC(=O)C1(N)CCCC1.Cl` was run?
A: The Activity was 44%.

Q: What about the Activity (Rattus norvegicus [2]) of the same molecule?
A: Its Activity is 39%.

Q: What about the Activity (Rattus norvegicus [3]) of the same molecule?
A: The Activity was 61%.

Q: What does the source list for `COC(=O)[C@H](Cc1ccc(OC(C)=O)c(OC(C)=O)c1)NC(=O)[C@@H](N)CC1CCCCC1.Cl`?
A: Activity (Rattus norvegicus [4]): 27%; Activity (Rattus norvegicus [5]): 32%; Activity (Rattus norvegicus [6]): 51%

Q: What does the source list for `CC(=O)Oc1ccc(C[C@H](NC(=O)C(C)(C)N)C(=O)O)cc1OC(C)=O.Cl`?
A: Activity (Rattus norvegicus [1]): 45%; Activity (Rattus norvegicus [2]): 42%; Activity (Rattus norvegicus [3]): 66%

Q: With `COC(=O)[C@H](Cc1ccc(O)c(O)c1)NC(=O)C1(N)CCCC1.Cl` (H-[Ac5c]-[Dopa]-OMe) as the molecule, how does the Activity (Rattus norvegicus [1]) read?
A: The Activity was 97%.

Q: What about the Activity (Rattus norvegicus [2]) of the same molecule?
A: Its Activity is 78%.

Q: What about the Activity (Rattus norvegicus [3]) of the same molecule?
A: Its Activity is 105%.

Q: Which results are given for `COC(=O)[C@H](Cc1ccc(O)c(O)c1)NC(=O)C1(N)CCCCC1.Cl` (H-[Ac6c]-[Dopa]-OMe)?
A: Activity (Rattus norvegicus [1]): 84%; Activity (Rattus norvegicus [2]): 88%; Activity (Rattus norvegicus [3]): 107%

Q: Which Activity (Rattus norvegicus [1]) does the source give for `CC(C)(N)C(=O)N[C@@H](Cc1ccc(O)c(O)c1)C(=O)OCc1ccccc1.Cl` (H-[Aib]-[Dopa]-OBn) here?
A: Its Activity is 38%.

Q: What about the Activity (Rattus norvegicus [2]) of the same molecule?
A: Its Activity is 46%.

Q: What about the Activity (Rattus norvegicus [3]) of the same molecule?
A: Its Activity is 71%.

Q: What does the source list for `CC(C)(N)C(=O)N[C@@H](Cc1ccc(O)c(O)c1)C(=O)O.Cl` (H-[Aib]-[Dopa]-OH)?
A: Activity (Rattus norvegicus [1]): 57%; Activity (Rattus norvegicus [2]): 65%; Activity (Rattus norvegicus [3]): 80%

Q: For `COC(=O)[C@H](Cc1ccc(O)c(O)c1)NC(=O)C(C)(C)N.Cl` (H-[Aib]-[Dopa]-OMe), which Activity (Rattus norvegicus [4]) is on record?
A: Its Activity is 63%.

Q: What about the Activity (Rattus norvegicus [5]) of the same molecule?
A: The Activity was 69%.

Q: And the Activity (Rattus norvegicus [6])?
A: Its Activity is 77%.

Q: With `CC(C)(N)C(=O)N[C@@H](Cc1ccc(O)c(O)c1)C(=O)OC1CCCCC1.Cl` (H-[Aib]-[Dopa]-OcHex) as the molecule, how does the Activity (Rattus norvegicus [1]) read?
A: The Activity was 70%.

Q: And the Activity (Rattus norvegicus [2])?
A: The Activity was 105%.

Q: What about the Activity (Rattus norvegicus [3]) of the same molecule?
A: Its Activity is 82%.

Q: Which results are given for `CC(C)OC(=O)[C@H](Cc1ccc(O)c(O)c1)NC(=O)C(C)(C)N.Cl` (H-[Aib]-[Dopa]-OiPr)?
A: Activity (Rattus norvegicus [1]): 72%; Activity (Rattus norvegicus [2]): 116%; Activity (Rattus norvegicus [3]): 149%

Q: For `COC(=O)[C@H](Cc1ccc(O)c(O)c1)NC(=O)[C@@H](N)CC1CCCCC1.Cl` (H-[Cha]-[Dopa]-OMe), which Activity (Rattus norvegicus [1]) is on record?
A: Its Activity is 45%.

Q: And the Activity (Rattus norvegicus [2])?
A: Its Activity is 40%.

Q: And the Activity (Rattus norvegicus [3])?
A: The Activity was 53%.

Q: `C[C@](N)(Cc1ccccc1)C(=O)N[C@@H](Cc1ccc(O)c(O)c1)C(=O)O.Cl` (H-[αMeF]-[Dopa]-OH) was tested. Which Activity (Rattus norvegicus [1]) did it give?
A: Its Activity is 40%.

Q: And the Activity (Rattus norvegicus [2])?
A: Its Activity is 26%.

Q: What about the Activity (Rattus norvegicus [3]) of the same molecule?
A: Its Activity is 37%.
